Data reported in patent publication EP0182152B1, “Antitumor antibiotics (LL-E33288 Complex)” (AMERICAN CYANAMID COMPANY, priority 1984, dated 1986).

What was measured:
[1] = tested on: lymphocytic leukemia P388; assay: Lymphocytic Leukemia P388 Test; type: in vivo, BDF1 mice; conditions: Table IX
From the text: (§1) Certain in vivo testing systems and protocols have been developed by the National Cancer Institute for testing compounds to determine their suitability as anti-neoplastic agents. These have been reported in "Cancer Chemotherapy Reports", Part III, Vol. 3, No. 2 (1972), Geran, et al. These protocols have established standardized screening tests which are generally followed in the field of testing for antitumor agents. Of these systems, lymphocytic leukemia P388, melanotic melanoma B16, L1210 leukemia and colon 26 adenocarcinoma are particularly significant to the present invention. These neoplasms are utilized for testing as transplantable tumors in mice. Generally, significant anti-tumor activity, shown in these protocols by a percentage increase of mean survival times of the treated animals (T) over the control animals (C), is indicative of similar results in human leukemias and solid tumors.
The animals used were BDF1 mice, all of one sex, weighing a minimum of 17 g and all within a 3 g weight range. There were 5 or 6 mice per test group. The tumor transplant was by intraperitoneal injection of 0.5 ml of dilute ascitic fluid containing 10^6 cells of lymphocytic leukemia P388. LL-E33288 antibiotics were tested in the P388 system both as the individual β1-Br and […] components and as a complex of all components (Bromo-complex). The test compounds were administered intrapertioneally at a volume of 0.5 ml in 0.2% Klucel in normal saline on days 1, 5 and 9 (relative to tumor inoculation) at the indicated doses. The mice were weighed and the survivors recorded on a regular basis for 30 days. The median survival time and the ratio of survival time for treated (T)/control (C) animals were calculated. The positive control compound was Cisplatin given as an intraperitioneal injection in 0.5 ml of 0.2% Klucel on days 1, 5 and 9 at the indicated doses.
If T/C X 100 (%) is 125 or over, the tested compound is considered to have significant anti-tumor activity.
(§2) In the same manner, the following iodo-components were tested for antineoplastic activity.

melanotic melanoma B16 = assay: Melanotic Melanoma B16 Test; type: in vivo, BDF1 mice; conditions: Table X, control value not given
From the text: as §1
The animals used were BDF1 mice, all of the same sex, weighing a minimum of 17 g and all within a 3 g weight range. There are normally 6 animals per test group. A 1 g portion of melanotic melanoma β16 tumor was homogenized in 10 ml of cold balanced salt solution and a 0.5 ml aliquot of the homogenate was implanted intraperitoneally into each of the test mice. LL-E33288 antibiotics were tested in the β16 system both as the individual β1-Br and γ1-Br components and as a complex of all components (Bromo-complex). The test compounds were administered intraperitioneally on days 1 through 9 (relative to tumor inoculation) at various doses. The mice were weighed and survivors recorded on a regular basis for 60 days. The median survival time and the ratio of survival time for treated (T)/control (C) animals were calculated. The positive control compounds were Cisplatin or Adriamycin. The results of this test appear in Table V. If T/C X 100 (%) is 125 or over, the tested compound is considered to have significant anti-tumor activity.
as §2

[2] = tested on: lymphocytic leukemia L1210; assay: Lymphocytic Leukemia L1210 Test; type: in vivo, BDF1 mice; conditions: Table XI, control 9 days
From the text: as §1
The animals used were BDF1 mice, all of one sex, weighing a minimum of 17 g and all within a 3 g weight range. There were 6 mice in each test group and 18 in control groups. The tumor transplant was by intraperitoneal injection of 0.5 ml of lymphocytic leukemia L1210 at a concentration of 10^5 cells per mouse. LL-E33288 antibiotics were tested in the L1210 system both as the individual β1-Br component and as a complex of all components (Bromo-complex). The test compounds were administered on days 1, 5 and 9 or days 1 through 9 (relative to tumor inoculation) at various doses. The mice were weighed and survivors recorded on a regular basis for 30 days. The median survival time and the ratio of survival time for treated (T)/control (C) animals were calculated. The positive control compound was 1,4-dihydroxy-5,8-bis[[2-(2-hydroxyethylamino)ethyl]amino]anthraquinone dihydrochloride or Cisplatin given intraperitoneally at the indicated dose. If T/C X 100 (%) is 125 or over, the tested compound is considered to have significant anti-tumor activity.
as §2

Colon 26 tumor = assay: Colon 26 Adenocarcinoma Test; type: in vivo, CD2F1 female mice; conditions: Table XII, control 18.5 days
From the text: as §1
The animals used were CD2F1 female mice weighing a minimum of 17 g and all within a 3 g weight range. There were 5 or 6 mice per test group with three groups of 5 or 6 animals used as untreated controls for each test. The tumor implant was by intraperitoneal (or subcutaneous) injection of 0.5 ml of a 2% Colon 26 tumor brei in Eagle's MEM medium containing antibiotics. LL-E33288 antibiotics were tested in the Colon 26 system as a complex (Bromo-complex) of all components. The test compounds were administered intraperitoneally on days 1, 5 and 9 (relative to tumor implant doses). The mice were weighed and deaths recorded on a regular basis for 30 days. The median survival times for treated (T)/control (C) animals were calculated. The positive control compound was Cisplatin. If T/C X 100 (%) is 130 or over, the tested compound is considered to have significant anti-tumor activity.
as §2

[3] = Test 1, dose .00015 mg/kg, control 13 days
[4] = Test 1, dose .0003 mg/kg, control 13 days
[5] = Test 1, dose .0006 mg/kg, control 13 days
[6] = Test 1, dose .00125 mg/kg, control 13 days
[7] = Test 1, dose .0025 mg/kg, control 13 days
[8] = Test 1, dose .005 mg/kg, control 13 days
[9] = Test 2, dose - .00125 mg/kg, control 11 days
[10] = Test 2, dose .00015 mg/kg, control 11 days
[11] = Test 2, dose .0003 mg/kg, control 11 days
[12] = Test 2, dose .0006 mg/kg, control 11 days
[13] = Test 2, dose .0025 mg/kg, control 11 days
[14] = Test 2, dose .005 mg/kg, control 11 days
[15] = Test 2, dose .01 mg/kg, control 11 days

`CCN[C@H]1CO[C@@H](O[C@H]2[C@H](O[C@H]3C#CC=CC#C[C@@]4(O)CC(=O)C(NC(=O)OC)=C3/C4=C\CSSSC)O[C@H](C)[C@@H](NO[C@H]3C[C@H](O)[C@H](SC(=O)c4c(C)c(I)c(O[C@@H]5O[C@@H](C)[C@H](O)[C@@H](OC)[C@H]5O)c(OC)c4OC)[C@@H](C)O3)[C@@H]2O)C[C@@H]1OC` (stereo in doubt) [LL-E33288γ1-I] was tested, and the “Median Survival” value [1, 3] was 15 days, the “T/C x 100” value [1, 3] was 115% and the “Median Survival” value [1, 4] was 15.5 days. For the same compound, the “T/C x 100” value [1, 4] was 119%, the “Median Survival” value [1, 5] was 18 days and the “T/C x 100” value [1, 5] was 138%. For the same compound, the “Median Survival” value [1, 6] was 18.5 days, the “T/C x 100” value [1, 6] was 142% and the “Median Survival” value [1, 7] was 22 days. The “T/C x 100” value [1, 7] was 169%, the “Median Survival” value [1, 8] was greater than 25.5 days and the “T/C x 100” value [1, 8] was greater than 196%. The “Median Survival” value [1, 9] was 18.5 days, the “T/C x 100” value [1, 9] was 168% and the “Median Survival” value [1, 10] was 14 days. For the same compound, the “T/C x 100” value [1, 10] was 127%, the “Median Survival” value [1, 11] was 14 days and the “T/C x 100” value [1, 11] was 127%. The “Median Survival” value [1, 12] was 16 days, the “T/C x 100” value [1, 12] was 145% and the “Median Survival” value [1, 13] was 22.5 days. The “T/C x 100” value [1, 13] was 205%, the “Median Survival” value [1, 14] was 18 days and the “T/C x 100” value [1, 14] was 164%. For the same compound, the “Median Survival” value [1, 15] was 11 days, the “T/C x 100” value [1, 15] was 100% and the “Median Survival” value (melanotic melanoma B16; dose .00007 mg/kg) was 30.5 days. For the same compound, the “T/C x 100” value (melanotic melanoma B16; dose .00007 mg/kg) was 179%, the “Median Survival” value (melanotic melanoma B16; dose .00015 mg/kg) was 33.5 days and the “T/C x 100” value (melanotic melanoma B16; dose .00015 mg/kg) was 197%. The “Median Survival” value (melanotic melanoma B16; dose .0003 mg/kg) was 35.5 days, the “T/C x 100” value (melanotic melanoma B16; dose .0003 mg/kg) was 209% and the “Median Survival” value (melanotic melanoma B16; dose .0006 mg/kg) was 42.5 days. For the same compound, the “T/C x 100” value (melanotic melanoma B16; dose .0006 mg/kg) was 250%, the “Median Survival” value (melanotic melanoma B16; dose .00125 mg/kg) was 27 days and the “T/C x 100” value (melanotic melanoma B16; dose .00125 mg/kg) was 159%. The “Median Survival” value (melanotic melanoma B16; dose .0025 mg/kg) was 26.5 days, the “T/C x 100” value (melanotic melanoma B16; dose .0025 mg/kg) was 156% and the “Median Survival” value ([2]; dose .0006 mg/kg) was 10 days. The “T/C x 100” value ([2]; dose .0006 mg/kg) was 111%, the “Median Survival” value ([2]; dose .0012 mg/kg) was 10.5 days and the “T/C x 100” value ([2]; dose .0012 mg/kg) was 117%. The “Median Survival” value ([2]; dose .0025 mg/kg) was 11 days, the “T/C x 100” value ([2]; dose .0025 mg/kg) was 122% and the “Median Survival” value ([2]; dose .005 mg/kg) was 14 days. The “T/C x 100” value ([2]; dose .005 mg/kg) was 156%, the “Median Survival” value ([2]; dose .01 mg/kg) was 8 days and the “T/C x 100” value ([2]; dose .01 mg/kg) was 89%. For the same compound, the “Median Survival” value (Colon 26 tumor; dose ,0006 mg/kg) was 23.5 days, the “T/C x 100” value (Colon 26 tumor; dose ,0006 mg/kg) was 127% and the “Median Survival” value (Colon 26 tumor; dose .00007 mg/kg) was 17 days. The “T/C x 100” value (Colon 26 tumor; dose .00007 mg/kg) was 92%, the “Median Survival” value (Colon 26 tumor; dose .00015 mg/kg) was 17.5 days and the “T/C x 100” value (Colon 26 tumor; dose .00015 mg/kg) was 95%. The “Median Survival” value (Colon 26 tumor; dose .0003 mg/kg) was 20 days, the “T/C x 100” value (Colon 26 tumor; dose .0003 mg/kg) was 108% and the “Median Survival” value (Colon 26 tumor; dose .00125 mg/kg) was 22.5 days. For the same compound, the “T/C x 100” value (Colon 26 tumor; dose .00125 mg/kg) was 122%, the “Median Survival” value (Colon 26 tumor; dose .0025 mg/kg) was 27 days and the “T/C x 100” value (Colon 26 tumor; dose .0025 mg/kg) was 146%. The “Median Survival” value (Colon 26 tumor; dose .005 mg/kg) was 25.5 days, the “T/C x 100” value (Colon 26 tumor; dose .005 mg/kg) was 138% and the “Median Survival” value (Colon 26 tumor; dose .01 mg/kg) was 11 days. For the same compound, the “T/C x 100” value (Colon 26 tumor; dose .01 mg/kg) was 59%.
